This note sets out measurements from publication PMC3977054, “Design, Synthesis and Biological Evaluation of 5-Oxo-1,4,5,6,7,8 Hexahydroquinoline Derivatives as Selective Cyclooxygenase-2 Inhibitors” (Iranian Journal of Pharmaceutical Research : IJPR, 2014).

By IC50 is commonly meant the midpoint of a concentration-inhibition curve. A high value points to lower potency. As a reminder, the melting point is the temperature, or range, at which the solid turns liquid.

Data set [1] deals with T1, COX-1 (Ovis aries, UniProt P05979).
T1 construct: purchased Cayman chemical, MI, USA
T1 sequence (P05979 25-600): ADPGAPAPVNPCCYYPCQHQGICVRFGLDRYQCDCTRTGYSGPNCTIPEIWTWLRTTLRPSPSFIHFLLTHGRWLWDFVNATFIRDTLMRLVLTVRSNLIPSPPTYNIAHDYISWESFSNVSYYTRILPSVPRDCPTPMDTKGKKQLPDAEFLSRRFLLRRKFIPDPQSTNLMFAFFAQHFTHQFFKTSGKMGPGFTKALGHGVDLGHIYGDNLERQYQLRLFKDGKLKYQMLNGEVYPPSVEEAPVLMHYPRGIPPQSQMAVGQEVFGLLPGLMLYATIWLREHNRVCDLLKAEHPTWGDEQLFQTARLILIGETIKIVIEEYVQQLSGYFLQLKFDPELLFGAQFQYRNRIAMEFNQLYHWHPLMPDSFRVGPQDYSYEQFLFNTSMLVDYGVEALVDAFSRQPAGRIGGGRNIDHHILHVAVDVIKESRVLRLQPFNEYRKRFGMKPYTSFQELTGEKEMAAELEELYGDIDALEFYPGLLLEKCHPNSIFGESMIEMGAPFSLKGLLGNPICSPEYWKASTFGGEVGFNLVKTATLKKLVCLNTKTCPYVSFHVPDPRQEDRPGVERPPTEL
As to the kind of experiment: biochemical. The conditions noted are these: ovine COX-1/COX-2 assay kit; mean of two determinations, deviation < 10% of the mean. As to the method: (§1) In-vitro cyclooxygenase (COX) inhibition assays
(§2) The assay was performed using an enzyme chemiluminescent kit (Cayman chemical, MI, USA) according to our previously reported method ([10]).

Data set [2] addresses T2, COX-2 (Ovis aries, UniProt P79208).
T2 construct: purchased Cayman chemical, MI, USA
T2 sequence (P79208 17-603): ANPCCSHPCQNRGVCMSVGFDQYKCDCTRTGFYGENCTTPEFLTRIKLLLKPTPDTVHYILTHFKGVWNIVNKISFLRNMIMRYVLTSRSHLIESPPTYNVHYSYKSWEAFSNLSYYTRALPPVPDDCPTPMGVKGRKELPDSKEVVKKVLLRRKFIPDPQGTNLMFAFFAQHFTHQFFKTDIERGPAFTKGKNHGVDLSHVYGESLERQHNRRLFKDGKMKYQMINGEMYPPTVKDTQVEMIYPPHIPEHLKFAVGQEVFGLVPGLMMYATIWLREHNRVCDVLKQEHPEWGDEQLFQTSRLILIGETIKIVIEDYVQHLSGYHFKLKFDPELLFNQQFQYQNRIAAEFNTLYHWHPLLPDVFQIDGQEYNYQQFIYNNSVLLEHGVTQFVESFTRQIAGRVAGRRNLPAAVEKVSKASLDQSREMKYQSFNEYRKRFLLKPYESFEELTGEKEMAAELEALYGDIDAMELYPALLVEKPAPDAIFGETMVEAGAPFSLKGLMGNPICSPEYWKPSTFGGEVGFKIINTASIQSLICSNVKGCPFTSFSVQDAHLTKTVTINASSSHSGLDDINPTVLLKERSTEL
As to the kind of experiment: biochemical. The conditions noted are these: for COX-2 S.I. (COX-1 IC50/ COX-2 IC50): in-vitro COX-2 selectivity index; for IC50: ovine COX-1/COX-2 assay kit, mean of two determinations, deviation < 10% of the mean. As to the method: as §1, §2

In turn, `Cc1ccc(C2=CC(c3ccc(S(C)(=O)=O)cc3)C3=C(CC(C)(C)CC3=O)N2)cc1` (stereo not shown) [Compound 9i, 7,8-Dihydro-7,7-dimethyl-2-(4-methylphenyl)-4-(4-(methylsulfonyl)phenyl) quinolin-5(1H, 4H, 6H)-one] came in with a melting point of 223 to 225 °C. In data set [1], this compound returned an IC50 of 2.9 µM. Further, in data set [2], the “COX-2 S.I. (COX-1 IC50/ COX-2 IC50)” value is 2.2 and half-maximal inhibition (IC50) required 1.3 µM.

`CC1(C)CC(=O)C2=C(C1)NC(c1ccc(F)cc1)=CC2c1ccc(S(C)(=O)=O)cc1` (stereo not shown) [Compound 9k, 2-(4-Fluorophenyl)-7,8-dihydro-7,7-dimethyl-4-(4-(methylsulfonyl)phenyl) quinolin-5 (1H, 4H, 6H)-one] registered a melting point of 226 to 230 °C. For the same compound, the IC50 in data set [1] was determined as 14.2 µM. Also, in data set [2], the “COX-2 S.I. (COX-1 IC50/ COX-2 IC50)” value is reported as 14.2 and inhibition was half-maximal at 1 µM (IC50).

As to `CC1(C)CC(=O)C2=C(C1)NC(c1ccc(S(C)(=O)=O)cc1)=CC2c1ccc(F)cc1` (stereo not shown) [Compound 9d], the melting point was in the range of 130 to 133 °C. The same compound registered an IC50 in data set [1] of 12.9 µM. In data set [2], the “COX-2 S.I. (COX-1 IC50/ COX-2 IC50)” value was 43 and 0.3 µM corresponded to half-maximal inhibition (IC50).

Regarding `COc1ccc(C2=CC(c3ccc(S(C)(=O)=O)cc3)C3=C(CC(C)(C)CC3=O)N2)cc1` (stereo not shown) [Compound 9j, 7,8-Dihydro-2-(4-methoxyphenyl)-7,7-dimethyl-4-(4-(methylsulfonyl)phenyl) quinolin-5(1H, 4H, 6H)-one], the melting point lay in the range of 226 to 230 °C. Further, in data set [1], the IC50 came to 18.7 µM. In data set [2], the “COX-2 S.I. (COX-1 IC50/ COX-2 IC50)” value came out at 62.3 and the IC50 was 0.3 µM.

On to `CC1(C)CC(=O)C2=C(C1)NC(c1ccccc1)=CC2c1ccc(S(C)(=O)=O)cc1` (stereo not shown) [Compound 9h], for which the melting point lay in the range of 205 to 208 °C. In data set [1], this compound yielded an IC50 of 3.6 µM. Further, in data set [2], the “COX-2 S.I. (COX-1 IC50/ COX-2 IC50)” value came out at 3.1 and inhibition was half-maximal at 1.16 µM (IC50).

The compound `CC1(C)CC(=O)C2=C(C1)NC(c1ccc(S(C)(=O)=O)cc1)=CC2c1ccc(Br)cc1` (stereo not shown) [Compound 9f] yielded a melting point of 237 to 240 °C. The compound further showed an IC50 in data set [1] of 20.9 µM. Further, in data set [2], the “COX-2 S.I. (COX-1 IC50/ COX-2 IC50)” value was found to be 2.1 and the IC50 stood at 10.1 µM.

On to `CC1(C)CC(=O)C2=C(C1)NC(c1ccc(Cl)cc1)=CC2c1ccc(S(C)(=O)=O)cc1` (stereo not shown) [Compound 9l, 2-(4-Cholorophenyl)-7,8-dihydro-7,7-dimethyl-4-(4-(methylsulfonyl)phenyl) quinolin-5(1H, 4H, 6H)-one], for which the melting point fell in the range of 226 to 230 °C. Moreover, 21.6 µM corresponded to half-maximal inhibition in data set [1] (IC50). Moreover, in data set [2], the “COX-2 S.I. (COX-1 IC50/ COX-2 IC50)” value was 3.1 and the IC50 amounted to 6.9 µM.

Consider `CC1(C)CC(=O)C2=C(C1)NC(c1ccc(Br)cc1)=CC2c1ccc(S(C)(=O)=O)cc1` (stereo not shown) [Compound 9m, 2-(4-Bromophenyl)-7,8-dihydro-7,7-dimethyl-4-(4-(methylsulfonyl)phenyl) quinolin-5 (1H, 4H, 6H)-one], for which the melting point lay in the range of 226 to 230 °C. This compound also had an IC50 in data set [1] of 17.9 µM. In data set [2], the “COX-2 S.I. (COX-1 IC50/ COX-2 IC50)” value is reported as 1.3 and the 50% inhibitory concentration (IC50) was 13.2 µM.

Turning to `COc1ccc(C2C=C(c3ccc(S(C)(=O)=O)cc3)NC3=C2C(=O)CC(C)(C)C3)cc1` (stereo not shown) [Compound 9c, 7,8-Dihydro-7,7-dimethyl-4-(4-methoxyphenyl)-2-(4-(methylsulfonyl)phenyl) quinolin-5(1H, 4H, 6H)-one], the melting point is 250 to 253 °C. For the same compound, the IC50 in data set [1] was 16.6 µM. Inhibition in data set [2] was half-maximal at 0.17 µM (IC50).

`CC1(C)CC(=O)C2=C(C1)NC(c1ccc([N+](=O)[O-])cc1)=CC2c1ccc(S(C)(=O)=O)cc1` (stereo not shown) [Compound 9n, 7,8-Dihydro-7,7-dimethyl-4-(4-(methylsulfonyl)phenyl)-2-(4-nitrophenyl) quinolin-5 (1H, 4H, 6H)-one] had a melting point of 226 to 230 °C. The IC50 in data set [1] worked out at 18.6 µM. Moreover, in data set [2], the “COX-2 S.I. (COX-1 IC50/ COX-2 IC50)” value worked out at 0.7 and half-maximal inhibition (IC50) required 24.9 µM.

In the case of `CC1(C)CC(=O)C2=C(C1)NC(c1ccc(S(C)(=O)=O)cc1)=CC2c1ccc(Cl)cc1` (stereo not shown) [Compound 9e], the melting point lay within 232 to 236 °C. In data set [1], this compound gave an IC50 of 18.7 µM. In data set [2], the “COX-2 S.I. (COX-1 IC50/ COX-2 IC50)” value turned out to be 3.8 and the IC50 was 4.9 µM.

`CC1(C)CC(=O)C2=C(C1)NC(c1ccc(S(C)(=O)=O)cc1)=CC2c1ccccc1` (stereo not shown) [Compound 9a] registered an IC50 in data set [1] of 2.6 µM. Further, in data set [2], the “COX-2 S.I. (COX-1 IC50/ COX-2 IC50)” value turned out to be 3.3 and the IC50 was determined as 0.8 µM.

In the case of `Cc1ccc(C2C=C(c3ccc(S(C)(=O)=O)cc3)NC3=C2C(=O)CC(C)(C)C3)cc1` (stereo not shown) [Compound 9b], the IC50 amounted to 2.5 µM in data set [1] and 0.45 µM in data set [2]. Moreover, in data set [2], the “COX-2 S.I. (COX-1 IC50/ COX-2 IC50)” value amounted to 5.6.

Consider `CC1(C)CC(=O)C2=C(C1)NC(c1ccc(S(C)(=O)=O)cc1)=CC2c1ccc([N+](=O)[O-])cc1` (stereo not shown) [Compound 9g], for which the IC50 in data set [1] came to 17.6 µM; in data set [2], 16.6 µM. For the same compound, in data set [2], the “COX-2 S.I. (COX-1 IC50/ COX-2 IC50)” value amounted to 1.1.
